Source: article PMC6222891, “Bioinspired Honokiol Analogs and Their Evaluation for Activity on the Norepinephrine Transporter” (Molecules : A Journal of Synthetic Chemistry and Natural …, 2018)

Target: T1, human norepinephrine transporter (hNET) (Homo sapiens, UniProt P23975)
T1 construct: expressed in transfected cells
Experiment: fluorescent neurotransmitter transporter uptake assay (plate reader)
Assay type: cell-based
Conditions: HEK-hNET-hVMAT2-mCherry cells; compounds selected for follow-up assays
Experimental: Cell line: All screening was done in a line of human embryonic kidney cells stably expressing the human norepinephrine transporter and the vesicular monoamine transporter 2 (HEK-hNET- -hVMAT2-mCherry). Human VMAT2 expression, in addition to hNET, more fully recapitulates a neuronal phenotype in cell culture. Cells were imaged and fully characterized for functionality (Figure 1). […] Screening: Synthesized compounds were tested for interaction with NET via a three-step process. First, all compounds were tested using a commercially available fluorescent assay (neurotransmitter transport uptake kit, Molecular Devices, San Jose, CA, USA) for the assessment of plasmalemmal monoamine transport ability. Cells were plated in poly-D-lysine (PDL)-coated 96-well plates (Corning Inc., Corning, NY, USA) to 100% confluence. The following day, cell media (DMEM, 10% fetal bovine serum, 1% penicillin/streptomycin) was removed, and experimental media (Hank’s balanced salt solution, Sigma-Aldrich) was added. […] Plates were incubated for 1 h, then read on a fluorescent plate reader (Thermo Fisher). Experiments were conducted in triplicate. […] Cells were plated to confluence in 48-well PDL-coated plates the day prior to the experiment. For experiments, media was removed, cells were rinsed with phosphate buffered saline (PBS), and incubated with or without compounds or desipramine (10 nM to 10 μM, non-specific uptake measured by addition of 100 μM desipramine) for ten minutes at 37 °C. Dopamine (1 μM total concentration with 200 nM ^3H-dopamine tracer) was added and uptake proceeded for 10 min at 37 °C. Cells were then rinsed three times with PBS, lysed with 0.1 N NaOH, and measured via liquid scintillation counting (Beckman Coulter, Brea, CA, USA). Finally, each selected compound was visualized with high-content imaging using the Array Scan VTI HCS (Cellomics). Cells were seeded to 80% confluence in PDL-coated, glass-bottom 96-well plates. Media was removed and DMEM without phenol red with or without compounds or desipramine (10 nM to 10 μM) was added. Following a one-hour incubation, cells were imaged. Forty-nine contiguous fields per well were taken and total fluorescence in the green channel was reported.
Figure 1 Plate reader-based fluorescent assay using human NET in a validation assay of the scree-ning strategy using the known NET inhibitor desipramine as a positive control. […] (C) Finally, uptake was visualized using high content imaging with the Array Scan VTI HCS (Cellomics, Thermo Fisher Scientific, Waltham, MA, USA) to visualize nuclei (stained with DAPI), VMAT2-mCherry, and dye. All experiments were conducted in triplicate and analyzed with nonlinear regression analysis in GraphPad Prism (GraphPad Software, La Jolla, CA, USA). Scale: […].

T1 sequence (P23975 whole entry): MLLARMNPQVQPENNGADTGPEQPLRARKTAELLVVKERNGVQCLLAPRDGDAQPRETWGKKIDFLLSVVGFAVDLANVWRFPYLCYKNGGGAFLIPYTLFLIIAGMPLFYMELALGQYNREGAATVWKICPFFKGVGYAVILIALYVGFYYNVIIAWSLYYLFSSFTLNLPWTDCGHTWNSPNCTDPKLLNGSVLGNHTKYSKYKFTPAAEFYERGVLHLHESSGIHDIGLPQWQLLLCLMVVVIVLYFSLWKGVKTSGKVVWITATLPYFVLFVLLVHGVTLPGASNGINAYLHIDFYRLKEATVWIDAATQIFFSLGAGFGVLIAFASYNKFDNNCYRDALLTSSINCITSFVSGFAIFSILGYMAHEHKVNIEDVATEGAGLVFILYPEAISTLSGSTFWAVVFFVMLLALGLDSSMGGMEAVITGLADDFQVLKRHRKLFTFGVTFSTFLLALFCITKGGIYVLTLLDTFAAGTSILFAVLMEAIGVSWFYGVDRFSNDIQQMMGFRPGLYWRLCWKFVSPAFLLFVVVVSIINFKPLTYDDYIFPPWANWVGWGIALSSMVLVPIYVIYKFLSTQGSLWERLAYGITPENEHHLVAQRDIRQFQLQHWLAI

SMILES | modulation of transport activity in the fluorescent screen (ranking)
C=CCc1cc(Cc2cccc(CC=C)c2OC)ccc1OC [Compound C4a, 3,3′-Diallyl-2,4′-dimethoxy-diphenyl-methan] | most potent modulators of transport activity
C=CCc1cc(NC(C)=O)c(O)c(-c2ccc(OC)c(CC=C)c2)c1 [Compound H8] | most potent modulators of transport activity
C=CCc1ccc(O)c(-c2ccc(OC)c(CC=C)c2)c1 [Compound H11, 4′-O-methylhonokiol] | most potent modulators of transport activity
C=CCc1ccc(OC)c(-c2ccc(OC)c(CC=C)c2)c1 [Compound H16] | most potent modulators of transport activity
CCCc1ccc(OC)c(-c2ccc(OC)c(CCC)c2)c1 [Compound H20] | most potent modulators of transport activity
CC(C)(C)c1ccc(O)c(-c2cc(C(C)(C)C)ccc2O)c1 [Compound M6] | most potent modulators of transport activity
